What was measured:
[1] = system: foxtail, giant; test: Test A preemergence; assay type: in vivo, Setaria faberii; conditions: preemergence; for Foxtail, Giant plant response rating (0 to 100 scale): visual injury approx. 10 days after treatment
Procedure, shortened: (§1)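 Ratings express plant response from 0 (no effect) to 100 (complete control), judged visually against untreated controls after approximately 10 days in the greenhouse. Preemergence applications were made as directed soil sprays onto seeded loam–sand mix, and postemergence applications onto 2–10 cm plants at one- to two-leaf stage.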

[2] = system: blackgrass; test: Test C preemergence; assay type: in vivo, Alopecurus myosuroides; conditions: for Blackgrass plant response rating / Plant response rating, Blackgrass: preemergence; for Plant response rating, Blackgrass: scale 0 to 100, 0 = no effect, 100 = complete control
Procedure, shortened: (§2)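 Seeds sown in loam–sand blend and treated preemergence with test chemicals in non-phytotoxic solvent with surfactant; postemergence plants in peat-based medium, treated at 2–18 cm (1- to 4-leaf stage). Greenhouse 13 to 15 days, then visual rating versus controls, 0 (no effect) to 100 (complete control).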

[3] = system: blackgrass; test: Test C postemergence; assay type: in vivo, Alopecurus myosuroides; conditions: for Plant response rating (scale of 0 to 100 where 0 is no effect and 100 is complete control), Blackgrass: Postemergence, 31 g ai/ha, visually evaluated after 13 to 15 days; for Blackgrass plant response rating / Plant response rating, Blackgrass: postemergence; for Blackgrass plant response rating: 62 g ai/ha, scale 0 to 100
Procedure, shortened: as §2

[4] = system: lambsquarters; test: Test C preemergence; assay type: in vivo, Chenopodium album; conditions: for Lambsquarters plant response rating: preemergence
Procedure, shortened: as §2

[5] = system: pigweed; test: Test C preemergence; assay type: in vivo, Amaranthus retroflexus; conditions: for Pigweed plant response rating / Plant response rating, Pigweed: preemergence; for Plant response rating, Pigweed: scale 0 to 100, 0 = no effect, 100 = complete control
Procedure, shortened: as §2

[6] = system: crabgrass, large; test: Test C postemergence; assay type: in vivo, Digitaria sanguinalis; conditions: for Plant response rating (scale of 0 to 100 where 0 is no effect and 100 is complete control), Crabgrass, Large: Postemergence, 31 g ai/ha, visually evaluated after 13 to 15 days; for Crabgrass, Large plant response rating / Plant response rating, Crabgrass, Large: postemergence; for Crabgrass, Large plant response rating: 62 g ai/ha, scale 0 to 100
Procedure, shortened: as §2

[7] = system: oilseed rape; test: Test C postemergence; assay type: in vivo, Brassica napus; conditions: for Oilseed Rape plant response rating / Plant response rating, Oilseed Rape: postemergence; for Oilseed Rape plant response rating: 62 g ai/ha, scale 0 to 100
Procedure, shortened: as §2

[8] = system: pigweed; test: Test A preemergence; assay type: in vivo, Amaranthus retroflexus; conditions: preemergence; for Pigweed plant response rating (0 to 100 scale): visual injury approx. 10 days after treatment
Procedure, shortened: as §1

[9] = system: johnsongrass; test: Test C postemergence; assay type: in vivo, Sorghum halepense; conditions: for Plant response rating (scale of 0 to 100 where 0 is no effect and 100 is complete control), Johnsongrass: Postemergence, 31 g ai/ha, visually evaluated after 13 to 15 days; for Johnsongrass plant response rating / Plant response rating, Johnsongrass: postemergence; for Johnsongrass plant response rating: 62 g ai/ha, scale 0 to 100
Procedure, shortened: as §2

[10] = system: johnsongrass; test: Test C preemergence; assay type: in vivo, Sorghum halepense; conditions: for Johnsongrass plant response rating / Plant response rating, Johnsongrass: preemergence; for Plant response rating, Johnsongrass: scale 0 to 100, 0 = no effect, 100 = complete control
Procedure, shortened: as §2

[11] = system: barnyardgrass; test: Test B flood; assay type: in vivo, Echinochloa crus-galli; conditions: 250 g ai/ha, visual rating on 0 to 100 scale (0 no effect, 100 complete control), 13 to 15 days
Procedure, shortened: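 Flooded-pot test: compound dosed into 3 cm of standing water above soil when plants had two leaves. Visual control ratings (0–100) versus untreated plants after 13–15 d.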

[12] = system: waterhemp; test: Test C postemergence; assay type: in vivo, Amaranthus rudis; conditions: for Waterhemp plant response rating / Plant response rating, Waterhemp: postemergence; for Waterhemp plant response rating: scale 0 to 100
From the text: Seeds of plant species selected from blackgrass (Alopecurus myosuroides), ryegrass, Italian (Italian ryegrass, Lolium multiflorum), wheat (winter wheat, Triticum aestivum), galium (catchweed bedstraw, Galium aparine), corn (Zea mays), crabgrass, large (large crabgrass, Digitaria sanguinalis), foxtail, giant (giant foxtail, Setaria faberii), johnsongrass (Sorghum halepense), lambsquarters (Chenopodium album), morningglory (Ipomoea coccinea), nutsedge, yellow (yellow nutsedge, Cyperus esculentus), pigweed (redroot pigweed, Amaranthus retroflexus), ragweed (common ragweed, Ambrosia elation), soybean (Glycine max), barnyardgrass (Echinochloa crus-galli), oilseed rape (Brassica napus), waterhemp (common waterhemp, Amaranthus rudis), oat, wild (wild oat, Avena fatua), kochia (Kochia scoparia), Surinam grass (Brachiaria decumbens), foxtail, green (green foxtail, Setaria viridis), goosegrass (Eleusine indica), bromegrass, downy (downy bromegrass, Bromus tectorum), nightshade (eastern black nightshade, Solanum ptycanthum), cocklebur (common cocklebur, Xanthium strumarium), cupgrass, woolly (woolly cupgrass, Eriochloa villosa), bermudagrass (Cynodon dactylon), sunflower, (common oilseed sunflower, Helianthus annuus), Russian thistle (Salsola kali), and velvetleaf (Abutilon theophrasti) were planted into a blend of loam soil and sand and treated preemergence with test chemicals formulated in a non-phytotoxic solvent mixture which included a surfactant.
At the same time, plants selected from these crop and weed species and also chickweed (common chickweed, Stellaria media), canarygrass (littleseed canarygrass, Phalaris minor), and deadnettle (henbit deadnettle, Lamium amplexicaule), were planted in pots containing Redi-Earth® planting medium (Scotts Company, 14111 Scottslawn Road, Marysville, Ohio 43041) comprising spaghnum peat moss, vermiculite, wetting agent and starter nutrients and treated with postemergence applications of test chemicals formulated in the same manner. Plants ranged in height from 2 to 18 cm (1- to 4-leaf stage) for postemergence treatments. Treated plants and controls were maintained in a greenhouse for 13 to 15 days, after which time all species were compared to controls and visually evaluated. Plant response ratings, summarized in Table C, are based on a scale of 0 to 100 where 0 is no effect and 100 is complete control. A dash (-) response means no test result.

[13] = system: velvetleaf; test: Test A preemergence; assay type: in vivo, Abutilon theophrasti; conditions: preemergence; for Velvetleaf plant response rating (0 to 100 scale): 125 g ai/ha, visual injury approx. 10 days after treatment; for Velvetleaf plant response rating: 500 g ai/ha, visual injury after approx. 10 days, 0 to 100 scale (0 no effect, 100 complete control)
Procedure, shortened: as §1

[14] = system: wheat; test: Test A preemergence; assay type: in vivo, Triticum aestivum; conditions: preemergence; for Wheat plant response rating (0 to 100 scale): 125 g ai/ha, visual injury approx. 10 days after treatment; for Wheat plant response rating: 500 g ai/ha, visual injury after approx. 10 days, 0 to 100 scale (0 no effect, 100 complete control)
Procedure, shortened: as §1

[15] = 125 g ai/ha, visual injury, 0 to 100 scale, approx. 10 days
[16] = 500 g ai/ha, visual injury after approx. 10 days, 0 to 100 scale (0 no effect, 100 complete control)
[17] = 31 g ai/ha, visual rating, scale 0 to 100 (0 no effect, 100 complete control), 13 to 15 days
[18] = 62 g ai/ha, scale 0 to 100 (0 no effect, 100 complete control), 13 to 15 days
[19] = 125 g ai/ha, scale 0 to 100, 0 is no effect, 100 is complete control
[20] = 250 g ai/ha, scale 0 to 100 (0 no effect, 100 complete control)
[21] = 125 g ai/ha, scale 0 to 100, 0 no effect, 100 complete control
[22] = Postemergence, 31 g ai/ha, visually evaluated after 13 to 15 days
[23] = 250 g ai/ha, scale 0 to 100, 0 is no effect, 100 is complete control

CCc1cc(C(=O)NOC(C)C)nn1Cc1ccnc(OC(F)F)c1 [Compound 126]
Foxtail, Giant plant response rating [1, 15]: 100
Foxtail, Giant plant response rating [1, 16]: 100
Plant response rating (scale of 0 to 100), Blackgrass ([2]; Preemergence, 250 g ai/ha): 90
Blackgrass plant response rating [2, 17]: 55
Blackgrass plant response rating [2, 18]: 60
Blackgrass plant response rating [2, 19]: 90
Plant response rating (scale of 0 to 100 where 0 is no effect and 100 is complete control), Blackgrass [3]: 5
Blackgrass plant response rating [3]: 5
Plant response rating, Blackgrass [3, 20]: 25
Plant response rating, Blackgrass [3, 21]: 20
Plant response rating (scale of 0 to 100), Lambsquarters ([4]; Preemergence, 250 g ai/ha): 100
Lambsquarters plant response rating [4, 17]: 85
Lambsquarters plant response rating [4, 18]: 98
Lambsquarters plant response rating [4, 19]: 100
Plant response rating (scale of 0 to 100), Pigweed ([5]; Preemergence, 250 g ai/ha): 100
Pigweed plant response rating [5, 17]: 100
Pigweed plant response rating [5, 18]: 85
Pigweed plant response rating [5, 19]: 100
Plant response rating (scale of 0 to 100 where 0 is no effect and 100 is complete control), Crabgrass, Large [6]: 5
Crabgrass, Large plant response rating [6]: 10
Plant response rating, Crabgrass, Large [6, 20]: 60
Plant response rating, Crabgrass, Large [6, 21]: 15
Plant response rating (scale of 0 to 100 where 0 is no effect and 100 is complete control), Oilseed Rape [7, 22]: 45
Oilseed Rape plant response rating [7]: 50
Plant response rating, Oilseed Rape [7, 20]: 70
Plant response rating, Oilseed Rape [7, 21]: 60
Pigweed plant response rating [8, 15]: 100
Pigweed plant response rating [8, 16]: 100
Plant response rating (scale of 0 to 100 where 0 is no effect and 100 is complete control), Johnsongrass [9]: 5
Johnsongrass plant response rating [9]: 10
Plant response rating, Johnsongrass [9, 20]: 25
Plant response rating, Johnsongrass [9, 21]: 20
Plant response rating (scale of 0 to 100), Johnsongrass ([10]; Preemergence, 250 g ai/ha): 98
Johnsongrass plant response rating [10, 17]: 40
Johnsongrass plant response rating [10, 18]: 85
Johnsongrass plant response rating [10, 19]: 95
Plant response rating, Barnyardgrass [11]: 40
Plant response rating (scale of 0 to 100 where 0 is no effect and 100 is complete control), Waterhemp [12, 22]: 40
Waterhemp plant response rating ([12]; 62 g ai/ha): 50
Plant response rating, Waterhemp [12, 20]: 90
Plant response rating, Waterhemp [12, 21]: 70

CCCc1cc(C(=O)NC(C)C)nn1Cc1cc(C(F)(F)F)nn1C [Compound 201]
Foxtail, Giant plant response rating (0 to 100 scale) ([1]; 125 g ai/ha): 100
Foxtail, Giant plant response rating [1, 16]: 100
Blackgrass plant response rating [2, 17]: 85
Blackgrass plant response rating [2, 18]: 90
Plant response rating, Blackgrass ([2]; 125 g ai/ha, 13 to 15 days): 90
Blackgrass plant response rating [2, 23]: 90
Plant response rating (scale of 0 to 100 where 0 is no effect and 100 is complete control), Blackgrass [3]: 20
Blackgrass plant response rating [3]: 5
Plant response rating, Blackgrass [3, 20]: 60
Plant response rating, Blackgrass [3, 21]: 15
Pigweed plant response rating [5, 17]: 100
Pigweed plant response rating [5, 18]: 100
Plant response rating, Pigweed ([5]; 125 g ai/ha, 13 to 15 days): 98
Pigweed plant response rating [5, 23]: 98
Plant response rating (scale of 0 to 100 where 0 is no effect and 100 is complete control), Crabgrass, Large [6]: 15
Crabgrass, Large plant response rating [6]: 10
Plant response rating, Crabgrass, Large [6, 20]: 50
Plant response rating, Crabgrass, Large [6, 21]: 15
Velvetleaf plant response rating (0 to 100 scale) [13]: 100
Velvetleaf plant response rating [13]: 100
Oilseed Rape plant response rating [7]: 60
Plant response rating, Oilseed Rape [7, 20]: 80
Plant response rating, Oilseed Rape [7, 21]: 50
Wheat plant response rating (0 to 100 scale) [14]: 80
Wheat plant response rating [14]: 100
Pigweed plant response rating (0 to 100 scale) ([8]; 125 g ai/ha): 100
Pigweed plant response rating [8, 16]: 100
Plant response rating (scale of 0 to 100 where 0 is no effect and 100 is complete control), Johnsongrass [9]: 5
Johnsongrass plant response rating [9]: 5
Plant response rating, Johnsongrass [9, 20]: 85
Plant response rating, Johnsongrass [9, 21]: 30
Johnsongrass plant response rating [10, 17]: 85
Johnsongrass plant response rating [10, 18]: 85
Plant response rating, Johnsongrass ([10]; 125 g ai/ha, 13 to 15 days): 100
Johnsongrass plant response rating [10, 23]: 100
Plant response rating, Barnyardgrass [11]: 70
Plant response rating, Waterhemp [12, 20]: 85
Waterhemp plant response rating [12]: 70

CCCc1cc(C(=O)NC2CC2)nn1Cc1cc(C(F)(F)F)nn1C [Compound 202]
Foxtail, Giant plant response rating (0 to 100 scale) ([1]; 125 g ai/ha): 100
Foxtail, Giant plant response rating [1, 16]: 100
Blackgrass plant response rating [2, 17]: 10
Blackgrass plant response rating [2, 18]: 85
Plant response rating, Blackgrass ([2]; 125 g ai/ha, 13 to 15 days): 90
Blackgrass plant response rating [2, 23]: 90
Plant response rating (scale of 0 to 100 where 0 is no effect and 100 is complete control), Blackgrass [3]: 5
Blackgrass plant response rating [3]: 10
Plant response rating, Blackgrass [3, 20]: 30
Plant response rating, Blackgrass [3, 21]: 20
Pigweed plant response rating [5, 17]: 100
Pigweed plant response rating [5, 18]: 100
Plant response rating, Pigweed ([5]; 125 g ai/ha, 13 to 15 days): 100
Pigweed plant response rating [5, 23]: 100
Plant response rating (scale of 0 to 100 where 0 is no effect and 100 is complete control), Crabgrass, Large [6]: 5
Crabgrass, Large plant response rating [6]: 10
Plant response rating, Crabgrass, Large [6, 20]: 70
Plant response rating, Crabgrass, Large [6, 21]: 25
Velvetleaf plant response rating (0 to 100 scale) [13]: 30
Velvetleaf plant response rating [13]: 100
Oilseed Rape plant response rating [7]: 30
Plant response rating, Oilseed Rape [7, 20]: 80
Plant response rating, Oilseed Rape [7, 21]: 65
Wheat plant response rating (0 to 100 scale) [14]: 30
Wheat plant response rating [14]: 100
Pigweed plant response rating (0 to 100 scale) ([8]; 125 g ai/ha): 100
Pigweed plant response rating [8, 16]: 100
Plant response rating (scale of 0 to 100 where 0 is no effect and 100 is complete control), Johnsongrass [9]: 0
Johnsongrass plant response rating [9]: 5
Plant response rating, Johnsongrass [9, 20]: 25
Plant response rating, Johnsongrass [9, 21]: 5
Johnsongrass plant response rating [10, 17]: 50
Johnsongrass plant response rating [10, 18]: 85
Plant response rating, Johnsongrass ([10]; 125 g ai/ha, 13 to 15 days): 100
Johnsongrass plant response rating [10, 23]: 100
Plant response rating, Barnyardgrass [11]: 30
Plant response rating, Waterhemp [12, 20]: 90
Waterhemp plant response rating [12]: 85
